Experimental findings from patent US6653478B2, “Substituted benzimidazol-2-ones as vasopressin receptor antagonists and neuropeptide Y modulators” (Ortho-McNeil Pharmaceutical, Inc., priority 2000, dated 2003) are described below.

Where a name gives a salt, the structure may show the parent alone.

The target in one data set is human V2 receptor (Homo sapiens, UniProt P30518). The experiment in a line: V2 binding assay (3H-AVP displacement, HEK-293 membranes). On the set-up: expressed in transfected cells; host or cells: HEK-293 (membranes). The following applies: for inhibition at 1 µM: 1.0 μM compound, read-out: V2@1.0, % Inh; for inhibition at 10 µM: 10 μM compound, read-out: V2 % Inh @10. In outline:
(§1)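 Each well: membranes, test compound (from 10% DMSO working stock), 3H-AVP. Buffer pH 7.5 with 0.1% BSA and protease inhibitors; 1 h, room temperature. Non-specific binding: 1.25 μM AVP. Filter, wash, count.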

Data set [1] concerns the target T1, human V1b receptor (Homo sapiens, UniProt P47901).
T1 sequence (P47901 1-424): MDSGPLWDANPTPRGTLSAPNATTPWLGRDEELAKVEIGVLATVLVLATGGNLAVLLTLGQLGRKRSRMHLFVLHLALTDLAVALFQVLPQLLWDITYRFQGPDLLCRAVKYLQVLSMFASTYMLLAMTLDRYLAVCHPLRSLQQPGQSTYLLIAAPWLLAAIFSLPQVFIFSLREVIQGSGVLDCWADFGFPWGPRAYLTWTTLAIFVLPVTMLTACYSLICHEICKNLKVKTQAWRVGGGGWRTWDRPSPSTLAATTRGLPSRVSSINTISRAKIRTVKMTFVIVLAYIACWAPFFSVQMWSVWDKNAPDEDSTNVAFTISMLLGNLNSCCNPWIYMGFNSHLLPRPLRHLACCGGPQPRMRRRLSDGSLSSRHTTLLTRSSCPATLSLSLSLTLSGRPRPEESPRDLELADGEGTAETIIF
Put plainly: V1b binding assay (3H-AVP displacement, HEK-293 membranes). Details: expressed in transfected cells; host or cells: HEK-293 (membranes). The following applies: for inhibition at 10 µM: 10 μM compound, read-out: V1b % Inh @10; for inhibition at 1 µM: 1.0 μM compound, read-out: V1b@1.0, % Inh. In short, it runs like this:
as §1

The target in data set [2] is T2, human V1a receptor (Homo sapiens, UniProt P37288). Put plainly: V1a binding assay (3H-AVP displacement, HEK-293 membranes). On the set-up: expressed in transfected cells; host or cells: HEK-293 (membranes). The following applies: for inhibition at 1 µM: 1.0 μM compound, read-out: V1a@1.0, % Inh. In short, it runs like this:
as §1

The next data set has as its target T3, NPY2 receptors (Homo sapiens, UniProt P49146).
T3 construct: Cell Membranes from KAN-TS cells having NPY2 receptors; endogenous in cells; host or cells: KAN-TS cells (membranes)
T3 sequence (P49146 1-381): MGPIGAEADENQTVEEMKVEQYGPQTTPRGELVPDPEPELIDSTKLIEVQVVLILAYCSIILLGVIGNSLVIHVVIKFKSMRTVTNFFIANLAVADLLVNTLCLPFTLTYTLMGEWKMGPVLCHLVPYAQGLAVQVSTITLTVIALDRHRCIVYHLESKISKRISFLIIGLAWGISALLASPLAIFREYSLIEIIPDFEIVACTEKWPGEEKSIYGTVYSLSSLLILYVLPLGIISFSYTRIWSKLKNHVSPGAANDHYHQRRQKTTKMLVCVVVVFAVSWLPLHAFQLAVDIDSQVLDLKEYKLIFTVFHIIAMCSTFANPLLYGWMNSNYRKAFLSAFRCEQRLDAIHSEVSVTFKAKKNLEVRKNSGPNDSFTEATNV
Put plainly: Neuropeptide Y receptor binding assay (125I-PYY, KAN-TS cell membranes). The following applies: 10 μM compound; read-out: NPY-2@10, % Inh. In outline:
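Membranes from KAN-TS cells competed with 125I-PYY in binding buffer containing BSA, test compound at 10 μM final, 1 hr at room temperature. Nonspecific binding defined with 1 μM PYY final. Tubes centrifuged, washed with PBS and bound radioactivity gamma-counted.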

Data set [3] concerns the target T2, human V1a receptor. The experiment in a line: V1a functional assay, intracellular calcium mobilization in transfected HEK-293 cells (FLIPR). The following applies: challenge 1 nM AVP; read-out: Cell-Based Functional activity V1a IC50. On the set-up: expressed in transfected cells; host or cells: HEK-293. How it is done:
(§2) V1a, V1b or V2 Functional Assay
(§3) HEK-293 cells were grown in DMEM media supplemented with 10% FBS and glutamine (Gibco BRL, Grand Island, N.Y.). Once transfected the cells were passed biweekly by trypsinization and seeded into 96 well plates at 33,000 cells per well. HEK-293 were transfected with human V1a, V1b or V2 DNA using DMRIE-C reagent from Life Technologies, Inc., Grand Island, N.Y. Cells were tested for their responsiveness to vasopressin 48 hours after transfection. Stable lines were generated by selecting cells grown in culture media containing geneticin (500 μg/ml, Life Technologies).
(§4) Intracellular calcium mobilization was measured in HEK-293 cells transfected to express either human V1a, oxytocin or V1b receptors. Cells were plated into black 96-well Packard Clear-View plates 4 to 7 days prior to use. The cells were loaded with fluo-3 AM (Molecular Probes, Inc., Eugene, Oreg.) in buffer (25 mM Hepes, 125 mM NaCl, 1 gm/l glucose, 0.1% BSA, 5 mM KCl, 0.5 mM CaCl2, 0.5 mM MgCl2, pH 7.45) containing Pluronic (Molecular Probes) Cells were incubated with 5 μM fluo-3 AM for 1 hour shielded from light at room temperature. Intracellular fluorescence was measured using FLIPR (fluorometric imaging plate reader; Molecular Devices, Inc., Sunnyvale, Calif.). The FLIPR protocol called for images to be collected at one second intervals with 50 μl of the test compound added after the initial 10 images. An additional 70 images were then taken to detect any compound agonistic activity. FLIPR then added 50 μl of agonist peptide and collected a final 40 images for quantitating compound antagonistic activity. V1a- and V1b-expressing HEK cells were challenged with 1 nM and 0.5 nM AVP, respectively. Oxytocin-expressing HEK cells were challenged with 0.5 nM oxytocin (Peninsula Labs).
(§5) The data from the cAMP accumulation and the calcium mobilization assays are expressed as IC50 values as determined from dose response curves.
A general note: A change in cytosolic calcium serves as a functional read-out for many receptors and channels.

Data set [4] has as its target T1, human V1b receptor. The experiment in a line: V1b functional assay, intracellular calcium mobilization in transfected HEK-293 cells (FLIPR). On the set-up: expressed in transfected cells; host or cells: HEK-293. The following applies: for IC50: challenge 0.5 nM AVP, read-out: Cell-Based Functional activity V1b IC50. In kind it is cell-based. How it is done:
as §2, §3, §4, §5

Chain of human V2 receptor (P30518 whole entry): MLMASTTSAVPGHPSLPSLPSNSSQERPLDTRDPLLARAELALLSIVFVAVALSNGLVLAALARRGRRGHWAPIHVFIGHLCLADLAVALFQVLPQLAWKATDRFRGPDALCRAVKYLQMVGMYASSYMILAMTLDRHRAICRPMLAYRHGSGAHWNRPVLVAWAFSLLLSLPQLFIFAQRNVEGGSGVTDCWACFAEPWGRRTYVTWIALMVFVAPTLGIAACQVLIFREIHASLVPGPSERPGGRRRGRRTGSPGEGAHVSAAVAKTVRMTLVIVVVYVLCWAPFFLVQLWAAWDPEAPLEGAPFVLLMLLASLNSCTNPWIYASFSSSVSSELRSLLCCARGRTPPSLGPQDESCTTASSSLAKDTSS
T2 sequence (P37288 whole entry): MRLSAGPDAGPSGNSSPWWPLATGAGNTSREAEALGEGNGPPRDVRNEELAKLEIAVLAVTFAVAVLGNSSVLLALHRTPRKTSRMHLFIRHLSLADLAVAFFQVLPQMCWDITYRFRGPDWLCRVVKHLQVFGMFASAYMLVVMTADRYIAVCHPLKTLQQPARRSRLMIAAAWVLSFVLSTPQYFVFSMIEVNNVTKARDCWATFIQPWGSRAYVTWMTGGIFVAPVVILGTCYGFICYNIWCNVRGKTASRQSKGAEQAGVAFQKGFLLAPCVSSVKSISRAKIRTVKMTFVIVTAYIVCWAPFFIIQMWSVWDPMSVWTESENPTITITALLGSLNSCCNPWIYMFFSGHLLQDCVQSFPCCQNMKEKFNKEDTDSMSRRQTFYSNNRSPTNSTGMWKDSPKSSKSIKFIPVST

On to `NCCCn1c(=O)n(C2CCN(C(=S)NC(c3ccccc3)c3ccccc3)CC2)c2ccccc21` (as salt: hydrochloride) [Compound 55, 1-[(N1-Piperidinocarbothioyldiphenylmethylamino)-4-yl]-3-(3-aminopropyl)-1,3-dihydrobenzimidazol-2-one Monohydrochloride], for which the melting point (usually the temperature, or range, at which the solid turns liquid) was in the range of 189 to 190 °C.
`O=c1[nH]c2ccccc2n1C1CCN(C(=S)NCCc2ccc(Cl)cc2)CC1` [Compound 2]: the melting point lay in the range of 234 to 236 °C. In addition, the inhibition at 1 µM at human V2 receptor is 7%. In addition, on human V1b receptor [1], the inhibition at 10 µM was determined as 0%. For the same molecule, on human V1a receptor [2], the inhibition at 1 µM was 21%. For the same molecule, on NPY2 receptors, the inhibition at 10 µM is 1%.
The like results for `O=c1[nH]c2ccccc2n1C1CCN(C(=S)Nc2ccccc2)CC1` [Compound 3] were, in that order, 250 to 252 °C, 7%, 0%, 0% and 13%.
In the case of `COc1ccc(NC(=S)N2CCC(n3c(=O)[nH]c4ccccc43)CC2)cc1` [Compound 5], the melting point lay in the range of 238 to 243 °C. In addition, the inhibition at 1 µM on human V2 receptor came out at 34%. The inhibition at 10 µM at human V1b receptor [1] turned out to be 8%. The inhibition at 1 µM on human V1a receptor [2] stood at 38%. Further, the inhibition at 10 µM on NPY2 receptors was found to be 14%.
As for `O=c1[nH]c2ccccc2n1C1CCN(C(=S)NCc2ccccc2Cl)CC1` [Compound 12], the melting point lay in the range of 181 to 184 °C. For the same molecule, the inhibition at 10 µM at human V2 receptor amounted to 5%. In addition, the inhibition at 10 µM at human V1b receptor [1] was 0%. Further, on human V1a receptor [2], the IC50 – broadly, the concentration needed to halve the response being measured – stood at 2500 nM. In addition, at NPY2 receptors, the inhibition at 10 µM was 21%.
`O=c1[nH]c2ccccc2n1C1CCN(C(=S)NCC(c2ccccc2)c2ccccc2)CC1` [Compound 13] displayed a melting point of 230 to 233 °C. At human V2 receptor, the inhibition at 10 µM was 4%. Besides, the inhibition at 10 µM at human V1b receptor [1] is 1%. The molecule further registered an IC50 at human V1a receptor [2] of 1200 nM. Also, at NPY2 receptors, the inhibition at 10 µM was 22%.
As for `NCCCn1c(=O)n(C2CCN(C(=O)Nc3ccccc3-c3ccccc3)CC2)c2ccccc21` [Compound 62, 1-[(N1-Piperidinocarboyl-2-biphenylylamino)-4-yl]-3-(3-aminopropyl)-1,3-dihydro-benzimidazol-2-one hydrochloride], the inhibition at 1 µM at human V2 receptor was 0%. Besides, the inhibition at 10 µM on human V1b receptor [1] worked out at 35%; on NPY2 receptors, 50%. Moreover, the concentration for half-maximal inhibition (IC50) at human V1a receptor [2] is 200 nM; on human V1a receptor [3] it was 690 nM. Also, at human V1b receptor [4] (HEK293, 30 μM compound, read-out: Cell-Based Functional activity V1b % Inh. @ 30), the inhibition at 30 µM is 0%.
Turning to `NCCn1c(=O)n(C2CCN(C(=S)NC(c3ccccc3)c3ccccc3)CC2)c2ccccc21` [Compound 63, 1-[(N1-Piperidinocarbothioyldiphenylmethylamino)-4-yl]-3-(2-aminoethyl)-1,3-dihydrobenzimidazol-2-one Hydrochloride], at human V2 receptor, the inhibition at 1 µM was 42%. For the same molecule, the IC50 on human V1b receptor [1] came out at 4700 nM; on human V1a receptor [2], 50 nM; at human V1a receptor [3], 310 nM; at human V1b receptor [4], 8060 nM. Besides, the inhibition at 10 µM on human V1b receptor [1] was found to be 74%; at NPY2 receptors, 94%.
As to `NCCCCn1c(=O)n(C2CCN(C(=S)NC(c3ccccc3)c3ccccc3)CC2)c2ccccc21` [Compound 64, 1-[(N1-Piperidinocarbothioyldiphenylmethylamino)-4-yl]-3-(4-aminobutyl)-1,3-dihydro-benzimidazol-2-one], the IC50 on human V2 receptor stood at 560 nM; on human V1b receptor [1], 5400 nM; at human V1a receptor [2], 24 nM; on human V1a receptor [3], 140 nM; at human V1b receptor [4], 12100 nM. Also, the inhibition at 10 µM on NPY2 receptors amounted to 93%.
As to `NCCCCn1c(=O)n(C2CCN(C(=S)NC(c3ccccc3)c3ccc(Cl)cc3)CC2)c2ccccc21` (stereo not shown) [Compound 65, 1-[(N1-Piperidinocarbothioyl-4-chlorodiphenylmethylamino)-4-yl]-3-(4-aminobutyl)-1,3-dihydro-benzimidazol-2-one], the IC50 at human V2 receptor came to 500 nM; at human V1a receptor [2] it was 77 nM; on human V1a receptor [3], 460 nM; on human V1b receptor [4] it was 21000 nM. Further, the inhibition at 10 µM on human V1b receptor [1] and on NPY2 receptors was 51% in each case.
As to `O=c1n(CCCN2CCCCC2)c2ccccc2n1C1CCN(C(=S)NCC(c2ccccc2)c2ccccc2)CC1` [Compound 118, 1-[(N1-piperidinocarbothioyl-2,2-diphenylethylamino)-4-yl]-3-(3-N-piperidinylpropyl)-1,3-dihydrobenzimidazol-2-one], the inhibition at 1 µM amounted to 21% at human V2 receptor, 55% at human V1b receptor [1] and 94% on human V1a receptor [2]. Moreover, the inhibition at 10 µM on NPY2 receptors is 52%.
With `COc1ccccc1NC(=S)N1CCC(n2c(=O)n(CCCN3CCCCC3)c3ccccc32)CC1` [Compound 119, 1-[(N1-piperidinocarbothioyl-2-methoxyphenylamino)-4-yl]-3-(3-N-piperidinylpropyl)-1,3-dihydrobenzimidazol-2-one], the values for the inhibition at 1 µM at human V2 receptor, at human V1b receptor [1] and on human V1a receptor [2] were 19%, 29% and 48%, respectively. Moreover, on human V1a receptor [2], the IC50 is 61 nM. Also, the inhibition at 10 µM at NPY2 receptors is 13%.
In the case of `O=C(NC(c1ccccc1)(c1ccccc1)c1ccccc1)N1CCC(n2c(=O)n(CCCN3CCCCC3)c3ccccc32)CC1` [Compound 120, 1-[(N1-piperidinocarbonyltriphenylmethylamino)-4-yl]-3-(3-N-piperidinylpropyl)-1,3-dihydrobenzimidazol-2-one], the results for the inhibition at 1 µM on human V2 receptor, at human V1b receptor [1] and at human V1a receptor [2] were 20%, 25% and 20%, respectively. For the same molecule, the inhibition at 10 µM on NPY2 receptors turned out to be 100%.
